Laboratory results reported in PubChem BioAssay (NCI).
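GI50 is the concentration that inhibits growth by half. TGI is the concentration that stops growth completely.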

How the values were obtained:
Experiment in all cases: inhibition of tumour cell growth, NCI panel, 384-well format
[1] = tested on: 786-0 renal
[2] = tested on: A498 renal
[3] = tested on: A549 NSCLC
[4] = tested on: ACHN renal
[5] = tested on: BT-549 breast
[6] = tested on: CAKI-1 renal
[7] = tested on: CCRF-CEM leukemia
[8] = tested on: COLO 205 colon
[9] = tested on: DU-145 prostate
[10] = tested on: EKVX NSCLC
[11] = tested on: HCC-2998 colon
[12] = tested on: HCT-15 colon
[13] = tested on: HL-60(TB) leukemia
[14] = tested on: HOP-62 NSCLC
[15] = tested on: HOP-92 NSCLC
[16] = tested on: HS 578T breast
[17] = tested on: HT29 colon
[18] = tested on: IGROV1 ovarian
[19] = tested on: K-562 leukemia
[20] = tested on: KM12 colon
[21] = tested on: LOX IMVI melanoma
[22] = tested on: M14 melanoma
[23] = tested on: MALME-3M melanoma
[24] = tested on: MCF7 breast
[25] = tested on: MDA-MB-231 breast
[26] = tested on: MDA-MB-435 melanoma
[27] = tested on: MDA-MB-468 breast
[28] = tested on: MOLT-4 leukemia
[29] = tested on: NCI-H226 lung
[30] = tested on: NCI-H23 lung
[31] = tested on: NCI-H322M lung
[32] = tested on: NCI-H460 NSCLC
[33] = tested on: NCI-H522 lung
[34] = tested on: NCI/ADR-RES ovarian
[35] = tested on: OVCAR-3 ovarian
[36] = tested on: OVCAR-4 ovarian
[37] = tested on: OVCAR-5 ovarian
[38] = tested on: OVCAR-8 ovarian
[39] = tested on: PC-3 prostate
[40] = tested on: RPMI-8226 leukemia
[41] = tested on: RXF 393 renal
[42] = tested on: SF-268 CNS
[43] = tested on: SF-295 CNS
[44] = tested on: SF-539 CNS
[45] = tested on: SK-MEL-28 melanoma
[46] = tested on: SK-MEL-5 melanoma
[47] = tested on: SK-OV-3 ovarian
[48] = tested on: SN12C renal
[49] = tested on: SNB-19 CNS
[50] = tested on: SNB-75 CNS
[51] = tested on: SR leukemia
[52] = tested on: SW-620 colon
[53] = tested on: T-47D breast
[54] = tested on: TK-10 renal
[55] = tested on: U251 glioblastoma
[56] = tested on: UACC-257 melanoma
[57] = tested on: UACC-62 melanoma
[58] = tested on: UO-31 renal
[59] = tested on: HCT-116 colon
[60] = tested on: SK-MEL-2 melanoma

For `Cc1cc(N2CCOCC2)cc2[nH]c(-c3c(NC[C@@H](O)c4cccc(Cl)c4)cc[nH]c3=O)nc12`, the GI50 [1] was 1830 nM, the TGI [1] was 4360 nM and the GI50 [2] was 2190 nM. The TGI [2] was 4840 nM, the GI50 [3] was 1540 nM and the TGI [3] was 5240 nM. For the same molecule, the GI50 [4] was 1510 nM, the TGI [4] was 9760 nM and the GI50 [5] was 1830 nM. For the same molecule, the TGI [5] was 4760 nM, the GI50 [6] was 1770 nM and the TGI [6] was 4290 nM. It also gave a GI50 [7] of 2110 nM, a TGI [7] of 3940 nM and a GI50 [8] of 243 nM. It also gave a TGI [8] of 1030 nM, a GI50 [9] of 1740 nM and a TGI [9] of 4580 nM. It also gave a GI50 [10] of 663 nM, a TGI [10] of 2710 nM and a GI50 [11] of 1170 nM. For the same molecule, the TGI [11] was 2530 nM, the GI50 [12] was 1960 nM and the TGI [12] was 10100 nM. The GI50 [13] was 85.6 nM, the TGI [13] was 1100 nM and the GI50 [14] was 2480 nM. The TGI [14] was 9040 nM, the GI50 [15] was 477 nM and the TGI [15] was 1920 nM. The GI50 [16] was 1500 nM, the TGI [16] was 3070 nM and the GI50 [17] was 203 nM. For the same molecule, the TGI [17] was 1640 nM, the GI50 [18] was 1340 nM and the TGI [18] was 3260 nM. The GI50 [19] was 1810 nM, the TGI [19] was 4120 nM and the GI50 [20] was 16.3 nM. The TGI [20] was 121 nM, the GI50 [21] was 845 nM and the TGI [21] was 2070 nM. The GI50 [22] was 735 nM, the TGI [22] was 5440 nM and the GI50 [23] was 415 nM. It also gave a TGI [23] of 3990 nM, a GI50 [24] of 244 nM and a TGI [24] of 11600 nM. For the same molecule, the GI50 [25] was 2030 nM, the TGI [25] was 10400 nM and the GI50 [26] was 691 nM. It also gave a TGI [26] of 3560 nM, a GI50 [27] of 2230 nM and a TGI [27] of 4730 nM. For the same molecule, the GI50 [28] was 1150 nM, the TGI [28] was 2500 nM and the GI50 [29] was 197 nM. For the same molecule, the TGI [29] was 1760 nM, the GI50 [30] was 234 nM and the TGI [30] was 2640 nM. The GI50 [31] was 1880 nM, the TGI [31] was 11300 nM and the GI50 [32] was 607 nM. The TGI [32] was 2760 nM, the GI50 [33] was 1530 nM and the TGI [33] was 3830 nM. For the same molecule, the GI50 [34] was 3280 nM, the TGI [34] was 11100 nM and the GI50 [35] was 2880 nM. The TGI [35] was 12500 nM, the GI50 [36] was 1830 nM and the TGI [36] was 6990 nM. For the same molecule, the GI50 [37] was 831 nM, the TGI [37] was 4470 nM and the GI50 [38] was 3290 nM. For the same molecule, the TGI [38] was 11100 nM, the GI50 [39] was 3180 nM and the TGI [39] was 13800 nM. The GI50 [40] was 1560 nM, the TGI [40] was 3130 nM and the GI50 [41] was 1440 nM. For the same molecule, the TGI [41] was 2910 nM, the GI50 [42] was 1760 nM and the TGI [42] was 4770 nM. For the same molecule, the GI50 [43] was 2440 nM, the TGI [43] was 7730 nM and the GI50 [44] was 1520 nM. For the same molecule, the TGI [44] was 2920 nM, the GI50 [45] was 1250 nM and the TGI [45] was 6950 nM. For the same molecule, the GI50 [46] was 1320 nM, the TGI [46] was 4140 nM and the GI50 [47] was 1630 nM. For the same molecule, the TGI [47] was 5780 nM, the GI50 [48] was 715 nM and the TGI [48] was 2420 nM. It also gave a GI50 [49] of 2790 nM, a TGI [49] of 8230 nM and a GI50 [50] of 1840 nM. The TGI [50] was 3590 nM, the GI50 [51] was 1150 nM and the TGI [51] was 2390 nM. For the same molecule, the GI50 [52] was 1760 nM, the TGI [52] was 11300 nM and the GI50 [53] was 3840 nM. For the same molecule, the TGI [53] was 16200 nM, the GI50 [54] was 1760 nM and the TGI [54] was 4730 nM. It also gave a GI50 [55] of 3300 nM, a TGI [55] of 12100 nM and a GI50 [56] of 2170 nM. The TGI [56] was 9080 nM, the GI50 [57] was 2510 nM and the TGI [57] was 11700 nM. The GI50 [58] was 1780 nM and the TGI [58] was 5010 nM.
`COc1cc(Nc2ncc(F)c(Nc3ccc4c(n3)N(COP(=O)(O)O)C(=O)C(C)(C)O4)n2)cc(OC)c1OC` showed a GI50 [1] of 1320 nM, a TGI [1] of 2990 nM and a GI50 [2] of 1740 nM. The TGI [2] was 3350 nM, the GI50 [3] was 1520 nM and the TGI [3] was 3120 nM. For the same molecule, the GI50 [4] was 1250 nM, the TGI [4] was 5820 nM and the GI50 [5] was 1300 nM. For the same molecule, the TGI [5] was 2740 nM, the GI50 [6] was 974 nM and the TGI [6] was 2160 nM. For the same molecule, the GI50 [8] was 1640 nM, the TGI [8] was 3670 nM and the GI50 [9] was 1890 nM. It also gave a TGI [9] of 7540 nM, a GI50 [10] of 1090 nM and a TGI [10] of 2630 nM. The GI50 [59] was 1930 nM, the TGI [59] was 6520 nM and the GI50 [12] was 3060 nM. It also gave a TGI [12] of over 100000 nM, a GI50 [13] of 1570 nM and a TGI [13] of 3030 nM. The GI50 [14] was 1450 nM, the TGI [14] was 3710 nM and the GI50 [15] was 1260 nM. It also gave a TGI [15] of 2600 nM, a GI50 [16] of 1260 nM and a TGI [16] of 2550 nM. The GI50 [17] was 1410 nM, the TGI [17] was 4490 nM and the GI50 [18] was 427 nM. It also gave a TGI [18] of 1600 nM, a GI50 [19] of 2630 nM and a TGI [19] of 10800 nM. For the same molecule, the GI50 [20] was 2900 nM, the TGI [20] was 10900 nM and the GI50 [22] was 2410 nM. For the same molecule, the TGI [22] was 38800 nM, the GI50 [23] was 2300 nM and the TGI [23] was over 100000 nM. It also gave a GI50 [24] of 1910 nM, a TGI [24] of over 100000 nM and a GI50 [25] of 1980 nM. For the same molecule, the TGI [25] was 5780 nM, the GI50 [26] was 2350 nM and the TGI [26] was 25400 nM. It also gave a GI50 [27] of 1700 nM, a TGI [27] of 3340 nM and a GI50 [28] of 1380 nM. The TGI [28] was 3030 nM, the GI50 [29] was 640 nM and the TGI [29] was 2490 nM. The GI50 [30] was 1380 nM, the TGI [30] was 4400 nM and the GI50 [31] was 1750 nM. The TGI [31] was 4850 nM, the GI50 [32] was 534 nM and the TGI [32] was 11300 nM. It also gave a GI50 [33] of 679 nM, a TGI [33] of 2200 nM and a GI50 [35] of 1970 nM. For the same molecule, the TGI [35] was 11100 nM, the GI50 [36] was 1450 nM and the TGI [36] was 4120 nM. For the same molecule, the GI50 [37] was 1940 nM, the TGI [37] was 42800 nM and the GI50 [38] was 1610 nM. The TGI [38] was 3010 nM, the GI50 [39] was 2730 nM and the TGI [39] was 12300 nM. The GI50 [41] was 241 nM, the TGI [41] was 887 nM and the GI50 [42] was 1450 nM. It also gave a TGI [42] of 2810 nM, a GI50 [43] of 2500 nM and a TGI [43] of 88300 nM. The GI50 [44] was 618 nM, the TGI [44] was 1870 nM and the GI50 [60] was 2930 nM. It also gave a TGI [60] of 16500 nM, a GI50 [45] of 2340 nM and a TGI [45] of over 100000 nM. For the same molecule, the GI50 [46] was 2510 nM, the TGI [46] was 6660 nM and the GI50 [47] was 871 nM. The TGI [47] was 2230 nM, the GI50 [48] was 724 nM and the TGI [48] was 7140 nM. The GI50 [49] was 1920 nM, the TGI [49] was 4970 nM and the GI50 [50] was 505 nM. For the same molecule, the TGI [50] was 1680 nM, the GI50 [51] was 1510 nM and the TGI [51] was 2950 nM. For the same molecule, the GI50 [52] was 1880 nM, the TGI [52] was 6610 nM and the GI50 [53] was 2370 nM. The TGI [53] was 9310 nM, the GI50 [54] was 1380 nM and the TGI [54] was 3130 nM. The GI50 [55] was 1700 nM, the TGI [55] was 6870 nM and the GI50 [56] was 4060 nM. The TGI [56] was over 100000 nM, the GI50 [57] was 1220 nM and the TGI [57] was 3450 nM. For the same molecule, the GI50 [58] was 654 nM and the TGI [58] was 2830 nM.
